Measurements published in patent US10053497B2, “Therapeutic epitopes and uses thereof” (OXFORD UNIVERSITY INNOVATION LIMITED, priority 2002, dated 2018).
“And” between values parts separate entries of the source, which are not always exact repeats. Equal values may be shown once.

Assays:
Format in all cases: cell-based, human
[1] = tested on: PBMC from coeliac volunteers; test: Antagonism of A-gliadin 57-73 QE65 IFNgamma ELISPOT response (simultaneous addition of peptide); details: for % Inhibit of A-gliadin 57-73 QE65 interferon gamma ELISpot response by naturally occurring polymorphisms / % Inhibit. of A-gliadin 57-73 QE65 interferon gamma ELISPOT response by peptides known to bind HLA-DQ2: peptide 50 μg/ml plus A-gliadin 57-73 QE65 10 μg/ml; for % Inhibit. of A-gliadin 57-73 QE65 interferon gamma ELISPOT response: variant 50 μg/ml plus A-gliadin 57-73 QE65 10 μg/ml, n=5
Protocol: Simultaneous addition of peptide (50 μg/ml) or buffer and A-gliadin 57-73 QE65 (SEQ ID NO:2) (10 μg/ml) in IFNgamma ELISPOT using PBMC from coeliac volunteers 6 days after commencing 3 day gluten challenge (n=5). Results were expressed as response with peptide plus A-G 57-73 QE65 (mean of duplicates) as % response with buffer plus A-G 57-73 QE65 (mean of 20 replicates). (See Table 9).

[2] = tested on: PBMC from coeliac disease subjects; test: IFNγ ELISPOT with PBMC of coeliac disease subjects after bread/gluten challenge (agonist bioactivity of peptides); details: for Bioactivity % of unmodified A-gliadin 57-73 QE65 (G) / % agonist. (agonist activity compared to A-gliadin 57-73 QE65): 50 mcg/ml; for Bioactivity % of unmodified A-gliadin 57-73 QE65 (G): PBMC from 8 subjects, blank 7.1%; for % agonist. (agonist activity compared to A-gliadin 57-73 QE65): Table 9
[3] = tested on: PBMC of HLA-DQ2+ coeliac subjects; test: IFNγ ELISpot, comprehensive gliadin epitope mapping in HLA-DQ2+ coeliac subjects after gluten challenge; details: n=4
Procedure, shortened: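 PBMC (2-8×10^5/well) from HLA-DQ2+ coeliac subjects on gluten-free diet were taken before and on day 6/7 after 3-day bread challenge. They were incubated overnight with 20mer peptides or pools (20 μg/ml each), ± tTG deamidation (tTG 64 μg/ml in wells), in RPMI/10% human AB serum. Net sfc/million minus blank; single-peptide responses as % of P04722 77-93 QE85.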

[4] = tested on: PBMC of newly diagnosed coeliac subjects; test: IFNγ ELISpot in newly diagnosed coeliac disease: duration of gluten free diet before gluten challenge
[5] = A-gliadin 57-73 with the named amino acid at position 65, 50 μg/ml, 3 subjects, day 6

Molecule | % Inhibit of A-gliadin 57-73 QE65 interferon gamma ELISpot response by naturally occurring polymorphisms [1] | Bioactivity % of unmodified A-gliadin 57-73 QE65 (G) [2] [%] | % agonist. (agonist activity compared to A-gliadin 57-73 QE65) [2] [%] | % Inhibit. of A-gliadin 57-73 QE65 interferon gamma ELISPOT response [1] [%] | other results
PQPQPFPPELPYPQPQS [P04725 82-98 QE90] | 19% | – | – | – | –
QLQPFLQPELPYSQPQP [Q41509 77-93 QE85] | 11% and 6% | – | – | – | –
IDVWLGGLLAENFLPY [TP, reference compound] | – | – | – | – | % Inhibit. of A-gliadin 57-73 QE65 interferon gamma ELISPOT response by peptides known to bind HLA-DQ2 [1]: 31%
PQPQPFLPELPYPQPQS [P04727 79-95 QE65] | 6% | – | – | – | –
N[C@@H](Cc1ccc(O)cc1)C(=O)O [Peptide Y65] | – | 7 | 7 | 12 | Mean IFNγ ELISPOT response relative to the immunodominant epitope (Glu65) ([2]; A-gliadin 57-73 with the named amino acid at position 65, 50 μg/ml, 3 subjects, day 6, listed as Tyrosine): 8%
PRAPWIEQEGPEYW [HLA1a, reference compound] | – | – | – | – | % Inhibit. of A-gliadin 57-73 QE65 interferon gamma ELISPOT response by peptides known to bind HLA-DQ2 [1]: 0%; % Inhibit. of A-gliadin 57-73 QE65 interferon gamma ELISPOT response by peptides known to bind HLA-DQ2 ([1]; listed as HLA class 1 α 46-60): does not alter responses; ELISpot response, Alone ([3]; 20 mcg/ml): 0 percent P04722E; ELISpot response, P04722E+ ([3]; combined with P04722E, all 20 mcg/ml): 85 percent P04722E
CC(C)C[C@H](N)C(=O)O [Peptide L65] | – | 16 | 26 | 20 | Mean IFNγ ELISPOT response relative to the immunodominant epitope (Glu65) [2, 5]: 33%
N[C@@H](Cc1c[nH]cn1)C(=O)O [Peptide H65] | – | 26 | 16 | 20 | Mean IFNγ ELISPOT response relative to the immunodominant epitope (Glu65) ([2]; A-gliadin 57-73 with the named amino acid at position 65, 50 μg/ml, 3 subjects, day 6, listed as Histidine): 8%
QPQPFPPPELPYPQTQP [Gli α 1, 6 58-74 QE66] | 11% | – | – | – | –
QLQPFPQPELSYSQPQP [Gil α 3-5 57-73 QE65] | 7% | – | – | – | –
PQPQPFPPELPYPQTQP [P04723 77-93 QE85] | 10% | – | – | – | –
NCCCC[C@H](N)C(=O)O [Peptide K65] | – | 8 | 8 | 15 | Mean IFNγ ELISPOT response relative to the immunodominant epitope (Glu65) ([2]; listed as Lysine): 4%
C[C@@H](O)[C@H](N)C(=O)O [Peptide T65] | – | 19 | 19 | 28 | Mean IFNγ ELISPOT response relative to the immunodominant epitope (Glu65) [2, 5]: 55%
PQPQPFPPELPYPQPPP [P04726 82-98 QE90] | 5% | – | – | – | –
CC[C@H](C)[C@H](N)C(=O)O [Peptide I65] | – | 21 | 21 | 17 | Mean IFNγ ELISPOT response relative to the immunodominant epitope (Glu65) [2, 5]: 14%
N=C(N)NCCC[C@H](N)C(=O)O [Peptide R65] | – | 11 | 11 | 13 | Mean IFNγ ELISPOT response relative to the immunodominant epitope (Glu65) ([2]; A-gliadin 57-73 with the named amino acid at position 65, 50 μg/ml, 3 subjects, day 6, listed as Arginine): 1%
tTG: tissue transglutaminase alone (protein, UniProt P21980 2-687, looked up) Protein-glutamine …: AEELVLERCDLELETNGRDHHTADLCREKLVVRRGQPFWLTLHFEGRNYEASVDSLTFSVVTGPAPSQEAGTKARFPLRDAVEEGDWTATVVDQQDCTLSLQLTTPANAPIGLYRLSLEASTGYQGSSFVLGHFILLFNAWCPADAVYLDSEEERQEYVLTQQGFIYQGSAKFIKNIPWNFGQFEDGILDICLILLDVNPKFLKNAGRDCSRRSSPVYVGRVVSGMVNCNDDQGVLLGRWDNNYGDGVSPMSWIGSVDILRRWKNHGCQRVKYGQCWVFAAVACTVLRCLGIPTRVVTNYNSAHDQNSNLLIEYFRNEFGEIQGDKSEMIWNFHCWVESWMTRPDLQPGYEGWQALDPTPQEKSEGTYCCGPVPVRAIKEGDLSTKYDAPFVFAEVNADVVDWIQQDDGSVHKSINRSLIVGLKISTKSVGRDEREDITHTYKYPEGSSEEREAFTRANHLNKLAEKEETGMAMRIRVGQSMNMGSDFDVFAHITNNTAEEYVCRLLLCARTVSYNGILGPECGTKYLLNLNLEPFSEKSVPLCILYEKYRDCLTESNLIKVRALLVEPVINSYLLAERDLYLENPEIKIRILGEPKQKRKLVAEVSLQNPLPVALEGCTFTVEGAGLTEEQKTVEIPDPVEAGEEVKVRMDLLPLHMGLHKLVVNFESDKLKAVKGFRNVIIGPA | – | – | – | – | IFNγ ELISpot response, Day 0, 1 week gluten free diet ([4]; GFD: 1 week): 4 IFNγ specific spots/million PP; IFNγ ELISpot response, Day 6 of gluten challenge, 1 week gluten free diet ([4]; GFD: 1 week): 4 IFNγ specific spots/million PP; IFNγ ELISpot response, Day 0, 2 weeks gluten free diet ([4]; GFD: 2 weeks): 3 IFNγ specific spots/million PP; IFNγ ELISpot response, Day 6 of gluten challenge, 2 weeks gluten free diet ([4]; GFD: 2 weeks): 1 IFNγ specific spots/million PP; IFNγ ELISpot response, Day 0, 8 weeks gluten free diet ([4]; GFD: 8 weeks): 2 IFNγ specific spots/million PP; IFNγ ELISpot response, Day 6 of gluten challenge, 8 weeks gluten free diet ([4]; GFD: 8 weeks): 2 IFNγ specific spots/million PP; IFNγ ELISpot response, Day 0, no gluten free diet ([4]; GFD: none): 5 IFNγ specific spots/million PP; IFNγ ELISpot response, Day 6 of gluten challenge, no gluten free diet ([4]; GFD: none): 0 IFNγ specific spots/million PP
